In ChEMBL document CHEMBL1201862, “PubChem BioAssay data set” (2004):
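Five compound concentrations were applied to cells in 96-well plates for 48 hours; endpoints were derived by simple linear interpolation of the resulting dose-response curve. At the GI50, growth is halved.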 Activity calls are given as the source filed them. Cut-off read from the data, not from the text of the source: active = GI50 up to about 1.1 µM and inactive = higher.

Key:
Assay in all cases: NCI tumour cell line growth inhibition, 48 h
BT-549 = tested on: BT-549
DU-145 = tested on: DU-145
HCC 2998 = tested on: HCC 2998
HCT-116 = tested on: HCT-116
HCT-15 = tested on: HCT-15
LOX IMVI = tested on: LOX IMVI
M14 = tested on: M14
MDA-MB-435 = tested on: MDA-MB-435
Malme-3M = tested on: Malme-3M
OVCAR-3 = tested on: OVCAR-3
OVCAR-4 = tested on: OVCAR-4
OVCAR-8 = tested on: OVCAR-8
PC-3 = tested on: PC-3
RPMI-8226 = tested on: RPMI-8226
RXF 393 = tested on: RXF 393
SF-268 = tested on: SF-268
SF-539 = tested on: SF-539
SK-MEL-5 = tested on: SK-MEL-5
SK-OV-3 = tested on: SK-OV-3
SR = tested on: SR

Oc1c(C(O)(c2ccccc2)c2ccc3ccccc3c2O)ccc2ccccc12
GI50 (BT-549): 17.7 µM (inactive) | GI50 (DU-145): 15.6 µM (inactive) | GI50 (HCC 2998): 6.87 µM (inactive) | GI50 (HCT-116): 7.76 µM (inactive) | GI50 (HCT-15): 8.77 µM | GI50 (LOX IMVI): 10.3 µM (inactive) | GI50 (M14): 15.5 µM (inactive) | GI50 (MDA-MB-435): 14.1 µM (inactive) | GI50 (Malme-3M): 11.8 µM (inactive) | GI50 (OVCAR-3): 6.47 µM (inactive) | GI50 (OVCAR-4): 8.93 µM (inactive) | GI50 (OVCAR-8): 11.3 µM (inactive) | GI50 (PC-3): 8.26 µM (inactive) | GI50 (RPMI-8226): 2.11 µM (inactive) | GI50 (RXF 393): 8.87 µM (inactive) | GI50 (SF-268): 12.2 µM (inactive) | GI50 (SF-539): 19 µM (inactive) | GI50 (SK-MEL-5): 5.68 µM (inactive) | GI50 (SK-OV-3): 17.9 µM (inactive) | GI50 (SR): 1.26 µM (inactive)

N=C1C=CC(=C(c2ccc(N)cc2)c2ccc(N)cc2)C=C1
GI50 (BT-549): 0.982 µM (active) | GI50 (DU-145): 5.71 µM (inactive) | GI50 (HCC 2998): 4.93 µM (inactive) | GI50 (HCT-116): 3.87 µM (inactive) | GI50 (HCT-15): 12.8 µM | GI50 (LOX IMVI): 3.91 µM (inactive) | GI50 (M14): 4.05 µM (inactive) | GI50 (MDA-MB-435): 4.18 µM (inactive) | GI50 (Malme-3M): 3.18 µM (inactive) | GI50 (OVCAR-3): 10 µM (inactive) | GI50 (OVCAR-4): 9.93 µM (inactive) | GI50 (OVCAR-8): 1.91 µM (inactive) | GI50 (PC-3): 3.12 µM (inactive) | GI50 (RPMI-8226): 2.29 µM (inactive) | GI50 (RXF 393): 6.5 µM (inactive) | GI50 (SF-268): 0.542 µM (active) | GI50 (SF-539): 2.02 µM (inactive) | GI50 (SK-MEL-5): 1.09 µM (active) | GI50 (SK-OV-3): 13.1 µM (inactive) | GI50 (SR): 11.1 µM (inactive)

Oc1ccc(Nc2nc(Cl)c3nc[nH]c3n2)cc1
GI50 (BT-549): > 100 µM (inactive) | GI50 (DU-145): > 100 µM (inactive) | GI50 (HCC 2998): > 100 µM (inactive) | GI50 (HCT-116): > 100 µM (inactive) | GI50 (HCT-15): > 100 µM | GI50 (LOX IMVI): 63.5 µM (inactive) | GI50 (M14): > 100 µM (inactive) | GI50 (MDA-MB-435): > 100 µM (inactive) | GI50 (Malme-3M): > 100 µM (inactive) | GI50 (OVCAR-3): > 100 µM (inactive) | GI50 (OVCAR-4): > 100 µM (inactive) | GI50 (OVCAR-8): > 100 µM (inactive) | GI50 (PC-3): > 100 µM (inactive) | GI50 (RPMI-8226): 61.4 µM (inactive) | GI50 (RXF 393): > 100 µM (inactive) | GI50 (SF-268): > 100 µM (inactive) | GI50 (SF-539): > 100 µM (inactive) | GI50 (SK-MEL-5): > 100 µM (inactive) | GI50 (SK-OV-3): > 100 µM (inactive) | GI50 (SR): 28.1 µM (inactive)

CC(C)OC(=O)c1ccc(NCC2=CC(=O)C=CC2=O)cc1
GI50 (BT-549): 12.9 µM (inactive) | GI50 (DU-145): 16.6 µM (inactive) | GI50 (HCC 2998): 21.4 µM (inactive) | GI50 (HCT-116): 14.4 µM (inactive) | GI50 (HCT-15): 12.7 µM | GI50 (LOX IMVI): 12.8 µM (inactive) | GI50 (M14): 14.5 µM (inactive) | GI50 (MDA-MB-435): 13.6 µM (inactive) | GI50 (Malme-3M): 8.97 µM (inactive) | GI50 (OVCAR-3): 6.19 µM (inactive) | GI50 (OVCAR-4): 12.8 µM (inactive) | GI50 (OVCAR-8): 15.3 µM (inactive) | GI50 (PC-3): 13.1 µM (inactive) | GI50 (RPMI-8226): 2.54 µM (inactive) | GI50 (RXF 393): 12.8 µM (inactive) | GI50 (SF-268): 12.3 µM (inactive) | GI50 (SF-539): 7.45 µM (inactive) | GI50 (SK-MEL-5): 17.4 µM (inactive) | GI50 (SK-OV-3): 42 µM (inactive) | GI50 (SR): 2.39 µM (inactive)

CCOc1ccc2nc(NC(=O)/C(CC(=O)CC(C3=C(O)c4ccccc4CC3=O)c3ccccc3)=N\O)sc2c1 (centres undefined)
GI50 (BT-549): > 100 µM (inactive) | GI50 (DU-145): > 100 µM (inactive) | GI50 (HCC 2998): > 100 µM (inactive) | GI50 (HCT-116): > 100 µM (inactive) | GI50 (HCT-15): > 100 µM | GI50 (LOX IMVI): > 100 µM (inactive) | GI50 (M14): > 100 µM (inactive) | GI50 (MDA-MB-435): > 100 µM (inactive) | GI50 (Malme-3M): > 100 µM (inactive) | GI50 (OVCAR-3): > 100 µM (inactive) | GI50 (OVCAR-4): > 100 µM (inactive) | GI50 (OVCAR-8): > 100 µM (inactive) | GI50 (PC-3): > 100 µM (inactive) | GI50 (RPMI-8226): > 100 µM (inactive) | GI50 (RXF 393): > 100 µM (inactive) | GI50 (SF-268): > 100 µM (inactive) | GI50 (SF-539): > 100 µM (inactive) | GI50 (SK-MEL-5): > 100 µM (inactive) | GI50 (SK-OV-3): > 100 µM (inactive) | GI50 (SR): > 100 µM (inactive)

COC(=O)C1C(O)CCC2CN3CCc4c([nH]c5cccc(OC)c45)C3CC21 (centres undefined)
GI50 (BT-549): > 100 µM (inactive) | GI50 (DU-145): > 100 µM (inactive) | GI50 (HCC 2998): > 100 µM (inactive) | GI50 (HCT-116): > 100 µM (inactive) | GI50 (HCT-15): > 100 µM | GI50 (LOX IMVI): > 100 µM (inactive) | GI50 (M14): > 100 µM (inactive) | GI50 (MDA-MB-435): > 100 µM (inactive) | GI50 (Malme-3M): > 100 µM (inactive) | GI50 (OVCAR-3): > 100 µM (inactive) | GI50 (OVCAR-4): > 100 µM (inactive) | GI50 (OVCAR-8): > 100 µM (inactive) | GI50 (PC-3): > 100 µM (inactive) | GI50 (RPMI-8226): > 100 µM (inactive) | GI50 (RXF 393): 59.2 µM (inactive) | GI50 (SF-268): > 100 µM (inactive) | GI50 (SF-539): > 100 µM (inactive) | GI50 (SK-OV-3): > 100 µM (inactive) | GI50 (SR): > 100 µM (inactive)

CN(C)c1ccc(/C=C2\C[C@H]3[C@@H]4CCc5cc(OCCN6CCCC6)ccc5[C@H]4CC[C@]3(C)[C@H]2O)cc1
GI50 (BT-549): 16 µM (inactive) | GI50 (DU-145): 13.1 µM (inactive) | GI50 (HCC 2998): 5.7 µM (inactive) | GI50 (HCT-116): 2.71 µM (inactive) | GI50 (HCT-15): 5.3 µM | GI50 (LOX IMVI): 7.08 µM (inactive) | GI50 (M14): 4.27 µM (inactive) | GI50 (MDA-MB-435): 8.43 µM (inactive) | GI50 (Malme-3M): 11.5 µM (inactive) | GI50 (OVCAR-3): 14.6 µM (inactive) | GI50 (OVCAR-4): 16.3 µM (inactive) | GI50 (OVCAR-8): 6.32 µM (inactive) | GI50 (PC-3): 13.8 µM (inactive) | GI50 (RPMI-8226): 8.28 µM (inactive) | GI50 (RXF 393): 13.7 µM (inactive) | GI50 (SF-268): 21.9 µM (inactive) | GI50 (SF-539): 8.32 µM (inactive) | GI50 (SK-MEL-5): 9.66 µM (inactive) | GI50 (SK-OV-3): 16.6 µM (inactive) | GI50 (SR): 3.29 µM (inactive)
